For 17 compounds, viability results are on record in patent US9512086B2, “Compound for promoting apoptosis of cancer cells and a pharmaceutical composition containing the same and uses thereof” (National Chiao Tung University, priority 2014, dated 2016).

The subject of this assay is A549 cell line. The assay can be described thus: MTT cell viability, A549 cell line. The assay is classed as cell-based, human. The conditions noted are these: Homo sapiens, A549 cell line, 24 hours, MTT. As to the method:
The above cell lines were plated in 96-well plates at a density of 1×10^4 cells/well for 16 to 20 hours. […] After drug treatment, the cell lines were washed with phosphate-buffered saline (hereinafter referred to PBS), and were replaced with fresh complete RPMI-1640 medium for 2 days. Thereafter, the medium was replaced and the cells were incubated with 0.5 mg/ml of 3-(4,5-dimethylthiazol-2-yl)-2,5-diphenyltetrazolium bromide reagent (hereinafter referred to MTT, Sigma Chemical Co., St. Louis, Mo.) in complete RPMI-1640 medium for 4 hours. The viable cells converted MTT to formazan that generates a blue-purple color when dissolved in dimethyl sulfoxide (hereinafter referred to DMSO). The intensity of formazan was measured at 565 nm using a plate reader (VERSAmax, Molecular Dynamics, Sunnyvale, Calif.). The relative percentage of cell viability was calculated by dividing the absorbance of treated cells by that of the control in each experiment.
After drug treatment, the cells were washed with PBS and replaced with fresh complete RPMI-1640 medium for 2 days. Thereafter, the medium was replaced and the cells were incubated with 0.5 mg/mL of MTT reagent (Sigma Chemical Co., St. Louis, Mo.) in complete RPMI-1640 medium for 4 hours. The intensity of formazan was measured at 565 nm using a plate reader (VERSAmax, Molecular Dynamics, Sunnyvale, Calif.). The relative percentage of cell viability was calculated by dividing the absorbance of treated cells by that of the control in each experiment.

Structures are written as SMILES.

As a reminder, the viability is a read-out of living cells in per cent, often relative to untreated cells.

For the compound `COC(=O)CCCC(=O)N1CCN(CCCOc2cc3c(Nc4ccc(F)c(Cl)c4)ncnc3cc2OC)CC1` [Analogue-3, methyl 5-(4-(3-(4-(3-chloro-4-fluorophenylamino)-7-methoxyquinazolin-6-yloxy)propyl)piperazin-1-yl)-5-oxopentanoate], the viability at 10 µM amounted to 99.9%, the viability at 20 µM was 94.8%, the viability at 40 µM was 91.9% and the viability at 60 µM was found to be 91.3%. In addition, the viability at 80 µM stood at 89.8%.

`COC(=O)CCCCC(=O)N1CCN(CCCOc2cc3c(Nc4ccc(F)c(Cl)c4)ncnc3cc2OC)CC1` [Analogue-4, methyl 6-(4-(3-(4-(3-chloro-4-fluorophenylamino)-7-methoxyquinazolin-6-yloxy)propyl)piperazin-1-yl)-6-oxohexanoate] gave a viability at 10 µM of 94.6%, a viability at 20 µM of 90.4%, a viability at 40 µM of 84.3% and a viability at 60 µM of 83.3%. This compound also registered a viability at 80 µM of 79.4%.

In turn, `COC(=O)CCCCCC(=O)N1CCN(CCCOc2cc3c(Nc4ccc(F)c(Cl)c4)ncnc3cc2OC)CC1` [Analogue-5, methyl 7-(4-(3-(4-(3-chloro-4-fluorophenylamino)-7-methoxyquinazolin-6-yloxy)propyl)piperazin-1-yl)-7-oxoheptanoate] gave a viability at 10 µM of 95.2%, a viability at 20 µM of 91.7%, a viability at 40 µM of 90.1% and a viability at 60 µM of 83.4%. This compound also had a viability at 80 µM of 82.4%.

On to `COC(=O)CCCCCCC(=O)N1CCN(CCCOc2cc3c(Nc4ccc(F)c(Cl)c4)ncnc3cc2OC)CC1` [Analogue-6, methyl 8-(4-(3-(4-(3-chloro-4-fluorophenylamino)-7-methoxyquinazolin-6-yloxy)propyl)piperazin-1-yl)-8-oxooctanoate], for which the viability at 10 µM is 92%, the viability at 20 µM came out at 94.3%, the viability at 40 µM stood at 90.7% and the viability at 60 µM stood at 88.5%. This compound also came in with a viability at 80 µM of 88.9%.

Take `COC(=O)CCCCCCCC(=O)N1CCN(CCCOc2cc3c(Nc4ccc(F)c(Cl)c4)ncnc3cc2OC)CC1` [Analogue-7, methyl 9-(4-(3-(4-(3-chloro-4-fluorophenylamino)-7-methoxyquinazolin-6-yloxy)propyl)piperazin-1-yl)-9-oxononanoate]: the viability at 10 µM came to 90.3%, the viability at 20 µM came out at 89.7%, the viability at 40 µM came out at 85.8% and the viability at 60 µM turned out to be 84.8%. Moreover, the viability at 80 µM stood at 80.9%.

Take `CCOC(=O)CCC(=O)N1CCN(CCCOc2cc3c(Nc4ccc(F)c(Cl)c4)ncnc3cc2OC)CC1` [Analogue-8, ethyl 4-(4-(3-(4-(3-chloro-4-fluorophenylamino)-7-methoxyquinazolin-6-yloxy)propyl)piperazin-1-yl)-4-oxobutanoate]: the viability at 10 µM stood at 77.6%, the viability at 20 µM was 70%, the viability at 40 µM came to 67.4% and the viability at 60 µM came to 61.6%. Besides, the viability at 80 µM amounted to 35.6%.

With `CCCOC(=O)CCC(=O)N1CCN(CCCOc2cc3c(Nc4ccc(F)c(Cl)c4)ncnc3cc2OC)CC1` [Analogue-9, propyl 4-(4-(3-(4-(3-chloro-4-fluorophenylamino)-7-methoxyquinazolin-6-yloxy)propyl)piperazin-1-yl)-4-oxobutanoate], the viability at 10 µM came to 95.1%, the viability at 20 µM came out at 87%, the viability at 40 µM was found to be 80.9% and the viability at 60 µM turned out to be 70.4%. The same compound yielded a viability at 80 µM of 23.4%.

In the case of `CCCCOC(=O)CCC(=O)N1CCN(CCCOc2cc3c(Nc4ccc(F)c(Cl)c4)ncnc3cc2OC)CC1` [Analogue-10, butyl 4-(4-(3-(4-(3-chloro-4-fluorophenylamino)-7-methoxyquinazolin-6-yloxy)propyl)piperazin-1-yl)-4-oxobutanoate], the viability at 10 µM was found to be 94.4%, the viability at 20 µM stood at 86%, the viability at 40 µM is 79.1% and the viability at 60 µM was found to be 64.1%. Further, the viability at 80 µM is 36.9%.

`CCCCCOC(=O)CCC(=O)N1CCN(CCCOc2cc3c(Nc4ccc(F)c(Cl)c4)ncnc3cc2OC)CC1` [Analogue-11, pentyl 4-(4-(3-(4-(3-chloro-4-fluorophenylamino)-7-methoxyquinazolin-6-yloxy)propyl)piperazin-1-yl)-4-oxobutanoate]: the viability at 10 µM was 87.1%, the viability at 20 µM was 81.2%, the viability at 40 µM came out at 63.6% and the viability at 60 µM amounted to 30%. Further, the viability at 80 µM stood at 18.2%.

`CCCCCCOC(=O)CCC(=O)N1CCN(CCCOc2cc3c(Nc4ccc(F)c(Cl)c4)ncnc3cc2OC)CC1` [Analogue-12, hexyl 4-(4-(3-(4-(3-chloro-4-fluorophenylamino)-7-methoxyquinazolin-6-yloxy)propyl)piperazin-1-yl)-4-oxobutanoate] gave a viability at 10 µM of 89.3%, a viability at 20 µM of 85.1%, a viability at 40 µM of 74.2% and a viability at 60 µM of 63.6%. The viability at 80 µM came out at 42.9%.

`CCCCCCCOC(=O)CCC(=O)N1CCN(CCCOc2cc3c(Nc4ccc(F)c(Cl)c4)ncnc3cc2OC)CC1` [Analogue-13, heptyl 4-(4-(3-(4-(3-chloro-4-fluorophenylamino)-7-methoxyquinazolin-6-yloxy)propyl)piperazin-1-yl)-4-oxobutanoate] yielded a viability at 10 µM of 89.1%, a viability at 20 µM of 79.9%, a viability at 40 µM of 59.1% and a viability at 60 µM of 35.7%. Also, the viability at 80 µM stood at 27.2%.

Compound `CCCCCCCCOC(=O)CCC(=O)N1CCN(CCCOc2cc3c(Nc4ccc(F)c(Cl)c4)ncnc3cc2OC)CC1` [Analogue-14, octyl 4-(4-(3-(4-(3-chloro-4-fluorophenylamino)-7-methoxyquinazolin-6-yloxy)propyl)piperazin-1-yl)-4-oxobutanoate] returned a viability at 10 µM of 87.3%, a viability at 20 µM of 80%, a viability at 40 µM of 48.7% and a viability at 60 µM of 26%. The compound further returned a viability at 80 µM of 21.7%.

As to `CCCCCCCCCOC(=O)CCC(=O)N1CCN(CCCOc2cc3c(Nc4ccc(F)c(Cl)c4)ncnc3cc2OC)CC1` [Analogue-15, nonyl 4-(4-(3-(4-(3-chloro-4-fluorophenylamino)-7-methoxyquinazolin-6-yloxy)propyl)piperazin-1-yl)-4-oxobutanoate], the viability at 10 µM turned out to be 90%, the viability at 20 µM is 79.7%, the viability at 40 µM is 17.9% and the viability at 60 µM is 10.3%. For the same compound, the viability at 80 µM is 7.8%.

`CCCCCCCCCCOC(=O)CCC(=O)N1CCN(CCCOc2cc3c(Nc4ccc(F)c(Cl)c4)ncnc3cc2OC)CC1` [Analogue-16, decyl 4-(4-(3-(4-(3-chloro-4-fluorophenylamino)-7-methoxyquinazolin-6-yloxy)propyl)piperazin-1-yl)-4-oxobutanoate] displayed a viability at 10 µM of 95.7%, a viability at 20 µM of 88.2%, a viability at 40 µM of 15.5% and a viability at 60 µM of 3.9%. The viability at 80 µM came out at 2%.

`CCCCCCCCCCCOC(=O)CCC(=O)N1CCN(CCCOc2cc3c(Nc4ccc(F)c(Cl)c4)ncnc3cc2OC)CC1` [Analogue-17, undecyl 4-(4-(3-(4-(3-chloro-4-fluorophenylamino)-7-methoxyquinazolin-6-yloxy)propyl)piperazin-1-yl)-4-oxobutanoate] yielded a viability at 10 µM of 93.4%, a viability at 20 µM of 85.2%, a viability at 40 µM of 12% and a viability at 60 µM of 3.9%. Further, the viability at 80 µM came out at 2.8%.

`CCCCCCCCCCCCCOC(=O)CCC(=O)N1CCN(CCCOc2cc3c(Nc4ccc(F)c(Cl)c4)ncnc3cc2OC)CC1` [Analogue-19, tridecyl 4-(4-(3-(4-(3-chloro-4-fluorophenylamino)-7-methoxyquinazolin-6-yloxy)propyl)piperazin-1-yl)-4-oxobutanoate]: the viability at 10 µM is 93.7%, the viability at 20 µM worked out at 93.8%, the viability at 40 µM was 71.1% and the viability at 60 µM came to 20.6%. Moreover, the viability at 80 µM came to 6.8%.

Regarding `CCCCCCCCCCCCCCOC(=O)CCC(=O)N1CCN(CCCOc2cc3c(Nc4ccc(F)c(Cl)c4)ncnc3cc2OC)CC1` [Analogue-20, tetradecyl 4-(4-(3-(4-(3-chloro-4-fluorophenylamino)-7-methoxyquinazolin-6-yloxy)propyl)piperazin-1-yl)-4-oxobutanoate], the viability at 10 µM was 100%, the viability at 20 µM was determined as 92.3%, the viability at 40 µM was 88.6% and the viability at 60 µM came to 84.9%. The same compound returned a viability at 80 µM of 77.2%.
